According to ChEMBL document CHEMBL4270607, “Identification of crizotinib derivatives as potent SHIP2 inhibitors for the treatment of Alzheimer's disease” (Eur J Med Chem, 2018):
Each block holds one molecule with its values, some of them ahead of it. The source made the active and inactive calls. The rule behind the calls is not given here.

Assays:
[1] = target: T1, Phosphatidylinositol 3,4,5-trisphosphate 5-phosphatase 2 (Mus musculus) (UniProt Q6P549); assay: Inhibition of SHIP2 in mouse HT22 cells assessed as decrease in PI(3,4)P2 production at 10 uM after 24 hrs by mKate2-TAPP1-PH based fluorescence imaging method; type: cell-based
T1 sequence (whole entry): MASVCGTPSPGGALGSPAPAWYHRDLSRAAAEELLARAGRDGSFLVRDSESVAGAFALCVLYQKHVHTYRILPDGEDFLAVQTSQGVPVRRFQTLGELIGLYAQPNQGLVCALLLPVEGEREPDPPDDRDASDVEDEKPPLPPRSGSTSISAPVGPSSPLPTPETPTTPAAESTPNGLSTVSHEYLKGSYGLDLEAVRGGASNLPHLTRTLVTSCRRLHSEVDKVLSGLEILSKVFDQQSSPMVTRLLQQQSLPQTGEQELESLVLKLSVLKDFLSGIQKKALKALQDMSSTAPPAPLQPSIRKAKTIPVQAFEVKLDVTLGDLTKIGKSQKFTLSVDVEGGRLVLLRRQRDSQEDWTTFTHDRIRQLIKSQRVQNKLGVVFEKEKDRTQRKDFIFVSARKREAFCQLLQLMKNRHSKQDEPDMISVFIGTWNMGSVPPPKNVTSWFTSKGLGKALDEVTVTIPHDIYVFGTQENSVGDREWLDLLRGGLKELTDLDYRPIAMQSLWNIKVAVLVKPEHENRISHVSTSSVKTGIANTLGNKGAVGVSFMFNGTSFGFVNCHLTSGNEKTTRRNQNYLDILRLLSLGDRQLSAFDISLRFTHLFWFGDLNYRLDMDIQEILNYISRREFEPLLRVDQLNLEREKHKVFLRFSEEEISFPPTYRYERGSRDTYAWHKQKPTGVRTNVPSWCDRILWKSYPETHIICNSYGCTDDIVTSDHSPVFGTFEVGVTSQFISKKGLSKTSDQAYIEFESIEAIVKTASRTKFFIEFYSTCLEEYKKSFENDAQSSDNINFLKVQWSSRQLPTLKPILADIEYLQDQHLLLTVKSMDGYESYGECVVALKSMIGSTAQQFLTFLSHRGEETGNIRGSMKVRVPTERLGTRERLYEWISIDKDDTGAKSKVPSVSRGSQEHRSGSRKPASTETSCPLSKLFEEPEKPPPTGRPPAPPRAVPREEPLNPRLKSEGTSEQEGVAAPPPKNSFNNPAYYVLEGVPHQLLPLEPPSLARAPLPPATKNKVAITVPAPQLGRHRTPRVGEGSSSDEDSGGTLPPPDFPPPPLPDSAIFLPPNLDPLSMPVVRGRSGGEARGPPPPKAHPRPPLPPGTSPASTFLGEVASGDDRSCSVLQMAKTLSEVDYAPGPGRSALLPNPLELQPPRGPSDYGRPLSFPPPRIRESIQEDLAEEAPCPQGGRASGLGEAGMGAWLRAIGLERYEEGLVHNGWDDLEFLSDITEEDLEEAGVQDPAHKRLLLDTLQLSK

CYP2C19 = CYP2C19 (Homo sapiens, UniProt P33261); assay: Inhibition of recombinant human CYP2C19 assessed as remaining enzyme activity at 10 uM preincubated for 5 mins followed by NADPH addition measured after 20 mins by fluorescence assay relative to control; type: ADME; details: read-out: Activity
[2] = target: Glycogen synthase kinase-3 beta (Mus musculus) (UniProt Q9WV60); assay: Inhibition of amyloid beta (1 to 42)-induced GSK3beta activation in mouse HT22 cells assessed as increase in GSK3beta phosphorylation at Ser9 residues at 10 uM after 24 hrs by ELISA; type: cell-based
[3] = MRT (0 to t) in Sprague-Dawley rat at 2 mg/kg, iv administered as single dose by LC-MS/MS analysis; type: ADME, organism-based; details: in vivo
[4] = Half life in Sprague-Dawley rat at 2 mg/kg, iv administered as single dose by LC-MS/MS analysis; type: ADME, organism-based; details: in vivo
[5] = Tmax in Sprague-Dawley rat at 10 mg/kg, po administered as single dose by LC-MS/MS analysis; type: ADME, organism-based; details: in vivo
[6] = AUC (0 to t) in Sprague-Dawley rat at 10 mg/kg, po administered as single dose by LC-MS/MS analysis; type: ADME, organism-based; details: in vivo
[7] = Drug uptake in blood of Sprague-Dawley rat at 5 mg/kg, iv measured at 5 hrs by LC-MS/MS analysis; type: ADME, organism-based; details: read-out: Drug uptake
[8] = target: T1, Phosphatidylinositol 3,4,5-trisphosphate 5-phosphatase 2 (Mus musculus); assay: Inhibition of SHIP2 in H2O2-stimulated mouse HT22 cells assessed as decrease in PI(3,4)P2 production at 10 uM incubated for 30 mins followed by H2O2 stimulation for 5 mins in presence of PTEN inhibitor VO-Ohpic trihydrate by ELISA
[9] = Drug uptake in blood of Sprague-Dawley rat at 5 mg/kg, iv measured at 0.5 hrs by LC-MS/MS analysis; type: ADME, organism-based; details: read-out: Drug uptake
[10] = Drug uptake in blood of Sprague-Dawley rat at 5 mg/kg, iv measured at 1 hr by LC-MS/MS analysis; type: ADME, organism-based; details: read-out: Drug uptake
[11] = Drug uptake in brain of Sprague-Dawley rat at 5 mg/kg, iv measured at 5 hrs by LC-MS/MS analysis; type: ADME, organism-based; details: read-out: Drug uptake
[12] = Tmax in Sprague-Dawley rat at 2 mg/kg, iv administered as single dose by LC-MS/MS analysis; type: ADME, organism-based; details: in vivo
[13] = AUC (0 to infinity) in Sprague-Dawley rat at 2 mg/kg, iv administered as single dose by LC-MS/MS analysis; type: ADME, organism-based; parameters: dose 2 mg/kg, time infinity, route intravenous; details: in vivo
[14] = Cmax in Sprague-Dawley rat at 10 mg/kg, po administered as single dose by LC-MS/MS analysis; type: ADME, organism-based; parameters: dose 10 mg/kg, route oral; details: in vivo
[15] = Cmax in Sprague-Dawley rat at 2 mg/kg, iv administered as single dose by LC-MS/MS analysis; type: ADME, organism-based; parameters: dose 2 mg/kg, route intravenous; details: in vivo
[16] = Oral bioavailability in Sprague-Dawley rat at 2 mg/kg, iv administered as single dose by LC-MS/MS analysis; type: ADME, organism-based; details: in vivo
[17] = AUC (0 to t) in Sprague-Dawley rat at 2 mg/kg, iv administered as single dose by LC-MS/MS analysis; type: ADME, organism-based; details: in vivo
[18] = MRT (0 to t) in Sprague-Dawley rat at 10 mg/kg, po administered as single dose by LC-MS/MS analysis; type: ADME, organism-based; details: in vivo
[19] = Clearance in Sprague-Dawley rat at 2 mg/kg, iv administered as single dose by LC-MS/MS analysis; type: ADME, organism-based; details: in vivo
[20] = Drug uptake in brain of Sprague-Dawley rat at 5 mg/kg, iv measured at 1 hr by LC-MS/MS analysis; type: ADME, organism-based; details: read-out: Drug uptake
[21] = Drug uptake in blood of Sprague-Dawley rat at 5 mg/kg, iv measured at 2 hrs by LC-MS/MS analysis; type: ADME, organism-based; details: read-out: Drug uptake
[22] = Apparent volume of distribution in Sprague-Dawley rat at 2 mg/kg, iv administered as single dose by LC-MS/MS analysis; type: ADME, organism-based; details: in vivo, read-out: Vz
[23] = Drug uptake in brain of Sprague-Dawley rat at 5 mg/kg, iv measured at 2 hrs by LC-MS/MS analysis; type: ADME, organism-based; details: read-out: Drug uptake
[24] = MRT (0 to infinity) in Sprague-Dawley rat at 10 mg/kg, po administered as single dose by LC-MS/MS analysis; type: ADME, organism-based; details: in vivo

CYP2C19, sequence (P33261 whole entry): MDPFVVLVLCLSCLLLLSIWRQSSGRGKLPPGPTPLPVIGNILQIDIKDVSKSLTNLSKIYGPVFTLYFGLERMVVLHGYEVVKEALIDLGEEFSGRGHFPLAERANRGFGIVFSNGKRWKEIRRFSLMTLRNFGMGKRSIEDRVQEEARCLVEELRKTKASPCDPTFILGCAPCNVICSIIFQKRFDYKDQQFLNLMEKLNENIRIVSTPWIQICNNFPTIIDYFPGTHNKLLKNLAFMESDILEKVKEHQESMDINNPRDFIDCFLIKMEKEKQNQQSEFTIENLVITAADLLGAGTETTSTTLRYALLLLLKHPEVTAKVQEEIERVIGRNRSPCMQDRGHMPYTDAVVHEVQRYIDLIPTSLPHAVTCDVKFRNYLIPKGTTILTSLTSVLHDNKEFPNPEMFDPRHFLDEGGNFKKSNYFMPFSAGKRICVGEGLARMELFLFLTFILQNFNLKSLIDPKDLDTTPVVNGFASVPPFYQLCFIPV
Glycogen synthase kinase-3 beta (Mus musculus), sequence (Q9WV60 whole entry, looked up): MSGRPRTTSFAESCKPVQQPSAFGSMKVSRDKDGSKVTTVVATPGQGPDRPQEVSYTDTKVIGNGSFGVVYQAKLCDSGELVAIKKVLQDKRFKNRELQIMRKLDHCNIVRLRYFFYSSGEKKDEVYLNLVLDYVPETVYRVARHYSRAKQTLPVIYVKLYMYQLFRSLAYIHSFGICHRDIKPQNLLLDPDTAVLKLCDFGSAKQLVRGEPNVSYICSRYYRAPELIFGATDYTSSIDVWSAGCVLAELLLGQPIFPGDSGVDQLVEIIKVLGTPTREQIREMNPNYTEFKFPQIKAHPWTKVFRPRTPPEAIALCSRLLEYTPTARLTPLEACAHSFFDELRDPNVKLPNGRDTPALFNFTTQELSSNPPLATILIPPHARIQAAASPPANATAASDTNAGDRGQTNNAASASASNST

inhibition [1]: Active
activity at 20 min, 10 µM (CYP2C19): 16.4%
inhibition [2]: Active
SMILES: O=C(NCc1c(F)cccc1F)c1sccc1OCc1ccc(Cl)cc1Cl

inhibition [1]: Active
activity at 20 min, 10 µM (CYP2C19): 89.9%
SMILES: N#Cc1ccc(-c2cncc(OCc3ccc(Cl)cc3Cl)c2)s1

MRT last [3]: 1.28 h
inhibition [1]: Active
half-life [4]: 1.36 h
Tmax [5]: 1.75 h
activity at 20 min, 10 µM (CYP2C19): 36.4%
AUC(0-t) [6]: 2830 ng·h/mL
concentration at 5 h [7]: 89.4 ng/mL
inhibition [8]: Active
concentration at 0.5 h [9]: 1800 ng/mL
concentration at 1 h [10]: 1180 ng/mL
concentration at 5 h [11]: 194 ng/mL
Tmax [12]: 4.8 min
inhibition [2]: Active
AUC(0-inf) [13]: 1720 ng·h/mL
Cmax [14]: 636 ng/mL
Cmax [15]: 1480 ng/mL
bioavailability [16]: 33.3%
AUC(0-t) [17]: 1700 ng·h/mL
MRT last [18]: 3.06 h
clearance [19]: 19.5 mL/min/kg
concentration at 1 h [20]: 2730 ng/mL
concentration at 2 h [21]: 559 ng/mL
Vd [22]: 2.3 L/kg
concentration at 2 h [23]: 1440 ng/mL
MRT inf [24]: 3.19 h
SMILES: C[C@@H](Oc1cncc(-c2cnc(N)nc2)c1)c1c(Cl)ccc(F)c1Cl
